Experimental data published in ChEMBL document CHEMBL1132365, “A multisubstrate adduct inhibitor of AICAR transformylase” (J Med Chem, 1999).

What was measured:
[1] = molecular target: AICAR transformylase (Lactobacillus casei); assay: Inhibitory activity against AICAR formyltransferase
[2] = molecular target: T1, Bifunctional purine biosynthesis protein ATIC (Homo sapiens, UniProt P31939); assay: Inhibitory activity against AICAR formyltransferase
[3] = molecular target: T1, Bifunctional purine biosynthesis protein ATIC; assay: Binding affinity towards AICAR formyltransferase

T1 sequence (P31939 whole entry): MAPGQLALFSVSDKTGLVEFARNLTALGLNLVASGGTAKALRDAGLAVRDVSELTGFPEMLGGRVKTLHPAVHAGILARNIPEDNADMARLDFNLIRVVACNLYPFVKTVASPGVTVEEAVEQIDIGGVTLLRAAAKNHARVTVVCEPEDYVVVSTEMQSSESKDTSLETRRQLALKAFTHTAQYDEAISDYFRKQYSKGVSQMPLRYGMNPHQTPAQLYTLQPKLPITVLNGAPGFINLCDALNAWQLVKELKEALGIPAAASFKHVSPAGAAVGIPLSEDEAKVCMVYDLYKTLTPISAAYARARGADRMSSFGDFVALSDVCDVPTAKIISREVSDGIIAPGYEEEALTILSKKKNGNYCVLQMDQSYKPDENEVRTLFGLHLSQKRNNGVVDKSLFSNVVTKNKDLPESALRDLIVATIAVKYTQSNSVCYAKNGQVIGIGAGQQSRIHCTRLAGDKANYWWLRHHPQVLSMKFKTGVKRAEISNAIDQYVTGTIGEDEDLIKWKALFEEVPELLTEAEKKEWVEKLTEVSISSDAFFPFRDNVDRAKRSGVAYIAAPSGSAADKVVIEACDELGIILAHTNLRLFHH

Row | SMILES | IC50 [1] [nM] | IC50 [2] [nM] | Kd [3] [nM]
1 | Nc1nc(=O)c2nc(CN(C=O)c3ccc(C(=O)N[C@H](CCC(=O)O)C(=O)O)cc3)ccc2[nH]1 | 6400 | – | –
2 | NC(=O)c1ncn(C2O[C@H](COP(=O)(O)O)[C@@H](O)[C@H]2O)c1/C=C/C(=O)N(CC1=NC2C(=O)NC(N)=NC2C=C1)c1ccc(C(=O)N[C@@H](CCC(=O)O)C(=O)O)cc1 (stereo partly drawn) | – | 125 | 20
